Experimental data as given in patent US20110224221A1, “HEMATOPOIETIC PROTECTION AGAINST IONIZING RADIATION USING SELECTIVE CYCLIN-DEPENDENT KINASE 4/6 INHIBITORS” (priority 2008, published 2011).
“Also recorded” adds a separate entry of the source.

Columns and labels:
[1] = system: TyrRAS+Ink4a/Arf−/− melanoma; experiment: Tumor growth in Tyr-RAS+Ink4a/Arf−/− melanoma GEMM under daily treatment; format: in vivo, mice
Source text: Animals: All mice were housed in accord with the University of North Carolina at Chapel Hill (UNC-CH) Institutional Animal Care and Use Committee. Young adult (6-12 weeks of age), virgin female C57B1/6 mice were purchased from Jackson Labs (Bar Harbor, Me., United States of America). C3H mice were obtained from Harlan Sprague-Dawley Inc. (Indianapolis, Ind., United States of America). Experiments on tumor-bearing TyrRAS+Ink4a/Arf−/− mice (see Chin et al., Genes & development, 11, 2822-2834 (1997)) were performed in animals fully backcrossed (N>10) to the FVB/n background. Mice were treated as previously described (see Ramsey et al., Cancer Res., 67, 4732-4741 (2007)) with PD 0332991 obtained from Pfizer Inc., (New York, N.Y., United States of America) given by oral gavage at a dose of 150 mg/kg body weight. TyrRAS+Ink4a/Arf−/− mice were serially observed until tumor development. When tumors were about 0.2 cm^2 in size, daily PD 0332991 treatment was begun. The data shown in FIGS. 2B and 2D were normalized to tumor size at the time of therapy initiation. Tumor-bearing mice were euthanized at the indicated times for morbidity, tumor ulceration, or tumor size >1.5 cm in diameter.
See Walker et al., Genes Chromosomes Cancer, 22, 157-163 (1998); and Daniotti et al., Oncogene, 23, 5968-5977 (2004). […]

[2] = system: pancreatic islet; details: same dose and schedule (150 mg/kg daily); cited from earlier work
[3] = system: TyrRAS+Ink4a/Arf−/− melanoma; details: mouse, in vivo; cited from earlier work
[4] = system: peripheral blood lineages; parameters: species or system mice; details: mouse, in vivo
Source text: Data are shown as a moving average with each point representing the mean of three consecutive […]. Error bars are +/− of the standard error of the mean for all data points associated with the moving average. The solid black bar in the lower left of each graph indicates the duration of the PD0332991 treatment. Data from PD0332991 treated mice is shown by the unshaded squares. For comparison, data from mice that had not been treated with PD0332991 is shown in shaded circles.
For TBI experiments, mice were irradiated using a ^137Cs source (AECL Gammacell 40 Irradiator, Atomic Energy of Canada Ltd, Mississauga, Ontario, Canada). Delivered doses were at or near the empirically determined LD90 of 7.5 Gy, consistent with prior studies. See Na Nakorn et al., J. Clin. Invest., 109, 1579-1585 (2002); Herodin et al., Blood, 101, 2609-2616 (2003); Uckun et al., Blood, 75, 638-645 (1990); and Wang et al., Proc. Natl. Acad. Sci., USA, 94, 14590-14595 (1997). Peripheral blood was collected using a tail vein nick for complete blood cells (CBCs) and analyzed with a HemaTrue analyzer (Heska Co., Loveland, Colo., United States of America).
These observations are consistent with the kinetics and degree of myelosuppression seen when tumor bearing mice (see Ramsey et al., Cancer Res., 67, 4732-4741 (2007); and Fry et al., Mol. Cancer Ther., 3, 1427-1438 (2004)) and human patients with malignancies (see O'Dwyer et al., “A Phase I does escalation trial of a daily oral CDK4/6 Inhibitor PD 0332991” in American Society of Clinical Oncology (ASCO, Chicago, Ill., 2007)) are serially treated with PD0332991. The noted decreases might be expected to enhance the adverse effects of radiation therapy. However, unexpectedly as shown herein, hematopoietic cells are protected from adverse effects.

CC(=O)c1c(C)c2cnc(Nc3ccc(N4CCNCC4)cn3)nc2n(C2CCCC2)c1=O [PD0332991, 6-acetyl-8-cyclopentyl-5-methyl-2-(5-piperazin-1-yl-pyridin-2-ylamino)-8H-pyrido-[2,3-d]-pyrimidin-7-one]
mice that developed new tumors while receiving treatment ([1]; 150 mg/kg daily, in the 8-16 days): two of five
growth of established tumors ([1]; 150 mg/kg oral gavage daily, tumor-bearing Tyr-RAS+Ink4a/Arf−/− mice): no regression or decrease in tumor growth; also recorded: insensitive
proliferation in CDK4/6 dependent normal murine tissues such as the pancreatic islet [2]: abrogated proliferation
tolerability of dose and schedule [3]: well tolerated without evident toxicity
time to begin of improvement upon cessation [4]: ≤ 4 days
treatment time after which decrease became apparent [4]: 8 days
erythroid, platelet and myeloid lineages ([4]; po, 150 mg/kg): modest decrease
